Measured values published in PMC10628124, “Elevator-like movements of prestin mediate outer hair cell electromotility” (Nature Communications, 2023).

Columns and labels:
Assay type in all cases: cell-based
rPres = target: T1, rPres (Rattus norvegicus, UniProt Q9EPH0, R150C); assay: voltage-clamp fluorometry, Xenopus oocytes; conditions: 10 mM extracellular salicylate; labelled at C150 with MTS-TAMRA; signal suppressed, V1/2 depolarized
T1 construct: gene Slc26a5; full length; C-terminal 6xHis tag in Xenopus oocytes (pGEMHE); homodimer
T1 sequence (Q9EPH0 1-744 R150C): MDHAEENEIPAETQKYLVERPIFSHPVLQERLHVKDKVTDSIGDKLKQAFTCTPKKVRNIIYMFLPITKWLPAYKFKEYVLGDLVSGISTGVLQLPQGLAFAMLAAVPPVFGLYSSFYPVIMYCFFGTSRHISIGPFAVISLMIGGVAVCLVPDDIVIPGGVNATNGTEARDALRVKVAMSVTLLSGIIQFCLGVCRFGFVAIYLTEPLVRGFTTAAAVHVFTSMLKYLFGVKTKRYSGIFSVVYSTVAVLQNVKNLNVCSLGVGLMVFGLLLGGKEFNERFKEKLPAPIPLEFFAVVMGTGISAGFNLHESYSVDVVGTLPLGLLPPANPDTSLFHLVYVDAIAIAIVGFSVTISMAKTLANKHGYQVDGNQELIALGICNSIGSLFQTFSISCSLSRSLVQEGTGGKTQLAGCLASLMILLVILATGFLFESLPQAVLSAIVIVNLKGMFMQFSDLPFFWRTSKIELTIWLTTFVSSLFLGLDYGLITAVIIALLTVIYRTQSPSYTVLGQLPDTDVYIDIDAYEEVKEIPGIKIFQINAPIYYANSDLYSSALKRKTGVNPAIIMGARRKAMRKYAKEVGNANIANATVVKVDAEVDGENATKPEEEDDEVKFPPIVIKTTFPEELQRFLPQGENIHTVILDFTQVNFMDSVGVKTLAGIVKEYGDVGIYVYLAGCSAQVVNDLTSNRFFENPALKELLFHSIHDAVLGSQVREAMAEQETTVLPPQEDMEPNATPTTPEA

zPres [1] = target: T2, zPres (Danio rerio, UniProt Q7T2C4, R505K); assay: whole-cell patch clamp, non-linear capacitance, CHO cells; conditions: 10 mM extracellular salicylate; 160 mM intracellular Cl-; pH 7.4; zPres-GFP; inhibition
T2 construct: gene slc26a5; full length; C-terminal GFP fusion in CHO cells (pEGFP-N1); in Xenopus oocytes (pGEMHE) with functionally silent R505K; homodimer
T2 sequence (Q7T2C4 1-739 R505K): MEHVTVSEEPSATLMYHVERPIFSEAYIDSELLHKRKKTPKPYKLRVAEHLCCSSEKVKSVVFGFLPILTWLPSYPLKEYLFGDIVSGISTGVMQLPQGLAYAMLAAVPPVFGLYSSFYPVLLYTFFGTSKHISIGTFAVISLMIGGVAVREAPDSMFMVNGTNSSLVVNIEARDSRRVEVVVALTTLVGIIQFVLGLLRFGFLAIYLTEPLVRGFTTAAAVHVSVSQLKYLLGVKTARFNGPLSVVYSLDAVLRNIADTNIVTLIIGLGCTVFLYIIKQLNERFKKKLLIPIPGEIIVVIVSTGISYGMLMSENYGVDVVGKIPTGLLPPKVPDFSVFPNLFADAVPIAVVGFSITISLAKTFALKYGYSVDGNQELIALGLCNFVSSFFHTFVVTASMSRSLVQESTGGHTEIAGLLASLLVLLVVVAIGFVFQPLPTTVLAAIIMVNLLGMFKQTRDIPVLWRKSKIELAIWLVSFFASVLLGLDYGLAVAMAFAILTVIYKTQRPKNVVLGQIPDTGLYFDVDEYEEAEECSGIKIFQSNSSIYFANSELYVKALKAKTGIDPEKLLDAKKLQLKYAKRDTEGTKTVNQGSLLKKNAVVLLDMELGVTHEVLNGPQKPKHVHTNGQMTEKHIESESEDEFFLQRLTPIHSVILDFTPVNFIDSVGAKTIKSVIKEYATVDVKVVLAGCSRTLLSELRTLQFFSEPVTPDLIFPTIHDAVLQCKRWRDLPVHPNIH

zPres [2] = target: T3, zPres (Danio rerio, UniProt Q7T2C4, R505K, form not given); assay: whole-cell patch clamp, oxalate-chloride counter-transport current, CHO cells; conditions: 106 mM intracellular oxalate; extracellular chloride; current at 0 mV; GFP fusion
T3 construct: gene slc26a5; full length; C-terminal GFP fusion in CHO cells (pEGFP-N1); in Xenopus oocytes (pGEMHE) with functionally silent R505K; homodimer
T3 sequence (Q7T2C4 1-739 R505K): T2 sequence (Q7T2C4 1-739 R505K)

Structure (SMILES) | voltage-clamp fluorometry, Xenopus oocytes (rPres) | whole-cell patch clamp, non-linear capacitance, CHO cells (zPres [1]) | whole-cell patch clamp, oxalate-chloride counter-transport current, CHO cells (zPres [2])
O=C(O)c1ccccc1O [salicylate] | salicylate, suppressed the voltage-dependent fluorescence signals of rPres-R150C-TAMRA | NLC recorded from cells expressing zPres was readily inhibited by salicylate | –
O=C(O)C(=O)O [oxalate] | – | – | monitored as the electrogenic oxalate-chloride counter-transport current by whole-cell patch-clamping
